Read-outs that look alike come from different tables or passages of the source.
Assays:
[1] = target: T1, wild-type yeast ADH (Saccharomyces cerevisiae, UniProt P00330); test: Inactivation by diethyl pyrocarbonate; assay type: biochemical; settings: pH 8.0, 30 °C
T1 sequence (P00330 1-348): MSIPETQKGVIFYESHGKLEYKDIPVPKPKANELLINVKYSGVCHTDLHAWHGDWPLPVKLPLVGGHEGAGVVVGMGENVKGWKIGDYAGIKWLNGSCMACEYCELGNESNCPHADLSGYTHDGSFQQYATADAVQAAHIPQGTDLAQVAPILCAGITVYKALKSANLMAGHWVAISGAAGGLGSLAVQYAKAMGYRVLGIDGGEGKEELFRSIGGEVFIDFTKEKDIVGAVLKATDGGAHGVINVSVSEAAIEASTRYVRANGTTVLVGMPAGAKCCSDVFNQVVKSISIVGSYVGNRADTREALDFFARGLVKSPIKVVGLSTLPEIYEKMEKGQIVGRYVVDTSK

[2] = target: T2, H44R yeast ADH (Saccharomyces cerevisiae, UniProt P00330, H45R); test: Inactivation by diethyl pyrocarbonate; assay type: biochemical; settings: pH 8.0, 30 °C
T2 sequence (P00330 2-348 H45R): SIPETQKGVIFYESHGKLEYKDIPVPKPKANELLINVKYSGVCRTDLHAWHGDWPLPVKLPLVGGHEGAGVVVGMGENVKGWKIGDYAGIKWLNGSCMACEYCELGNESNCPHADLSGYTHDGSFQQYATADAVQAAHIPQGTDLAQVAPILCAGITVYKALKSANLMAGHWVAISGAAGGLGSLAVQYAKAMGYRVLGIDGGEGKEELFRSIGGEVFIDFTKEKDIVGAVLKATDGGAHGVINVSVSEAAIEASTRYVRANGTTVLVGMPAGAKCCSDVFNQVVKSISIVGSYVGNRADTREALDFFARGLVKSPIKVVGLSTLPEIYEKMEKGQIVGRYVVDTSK

[3] = target: T3, H48Q yeast ADH (Saccharomyces cerevisiae, UniProt P00330, H49Q); test: Inactivation by diethyl pyrocarbonate; assay type: biochemical; settings: pH 8.0, 30 °C
T3 sequence (P00330 2-348 H49Q): as the sequence (P00330 2-348 H45R) above, with R44H, H48Q counted along it

[4] = target: T4, H44R/H48Q yeast ADH (Saccharomyces cerevisiae, UniProt P00330, H45R/H49Q); test: Inactivation by diethyl pyrocarbonate; assay type: biochemical; settings: pH 8.0, 30 °C
T4 sequence (P00330 2-348 H45R/H49Q): as the sequence (P00330 2-348 H45R) above, with H48Q counted along it

[5] = target: T1, wild-type yeast ADH; settings: cited from earlier work
[6] = target: wild-type yeast alcohol dehydrogenase; settings: cited from earlier work
[7] = target: H44R yeast alcohol dehydrogenase; settings: pH 7.3, 30 °C, cited from earlier work
[8] = target: H48Q yeast alcohol dehydrogenase; settings: pH 7.3, 30 °C, cited from earlier work
[9] = target: T5, H44R/H48Q yeast alcohol dehydrogenase (Saccharomyces cerevisiae, UniProt P00330, H45R/H49Q); test: biochemical
T5 sequence (P00330 2-348 H45R/H49Q): as the sequence (P00330 2-348 H45R) above, with H48Q counted along it

[10] = target: T4, H44R/H48Q yeast ADH; assay type: biochemical; settings: for VD1, isotope effect for oxidation of ethanol: 550 mM ethanol, 2 mM NAD^+, single concentration, duplicate
[11] = target: T4, H44R/H48Q yeast ADH; assay type: biochemical
[12] = target: T5, H44R/H48Q yeast alcohol dehydrogenase
[13] = target: T1, wild-type yeast ADH; settings: cited from earlier work; remark: listed apart in the source
[14] = target: T1, wild-type yeast ADH; settings: ethanol or ethanol-d5 15–200 mM, 10 mM NAD^+, 30 °C, ref 6 and 9, cited from earlier work
[15] = target: T2, H44R yeast ADH; settings: ethanol or ethanol-d5 15–200 mM, 10 mM NAD^+, 30 °C, ref 6 and 9, cited from earlier work
[16] = target: T3, H48Q yeast ADH; settings: ethanol or ethanol-d5 15–200 mM, 10 mM NAD^+, 30 °C, ref 6 and 9, cited from earlier work
[17] = 90 μM diethyl pyrocarbonate, 33 mM sodium phosphate buffer
[18] = after 90 μM diethyl pyrocarbonate
[19] = read-out: Ki, CF3CH2OH, 83 mM potassium phosphate, 40 mM KCl
[20] = pH 7.3, 30 °C, 83 mM potassium phosphate, 40 mM KCl
[21] = 83 mM potassium phosphate, 40 mM KCl
[22] = read-out: Kiq, inhibition (dissociation) constant for NADH, pH 7.3, 30 °C, 83 mM potassium phosphate, 40 mM KCl
[23] = read-out: Kiq, inhibition (dissociation) constant for NADH, 83 mM potassium phosphate, 40 mM KCl
[24] = read-out: Kia, inhibition (dissociation) constant for NAD^+, 83 mM potassium phosphate, 40 mM KCl

CCOC(=O)OC(=O)OCC [diethyl pyrocarbonate]
Inactivation constant [1, 17]: 180 M⁻¹ s⁻¹
Residual activity (% of initial) [1, 18]: 3.1 % of initial
Inactivation constant [2, 17]: 31 M⁻¹ s⁻¹
Residual activity (% of initial) [2, 18]: 30 % of initial
Inactivation constant [3, 17]: 25 M⁻¹ s⁻¹
Residual activity (% of initial) [3, 18]: 55 % of initial
Inactivation constant ([4]; 120 μM diethyl pyrocarbonate, 33 mM sodium phosphate buffer): 11 M⁻¹ s⁻¹
Residual activity (% of initial) ([4]; after 120 μM diethyl pyrocarbonate): 64 % of initial
pK of the rate of inactivation by diethyl pyrocarbonate ([5]; enzyme-NADH complex): 8.7
pK value of the rate of inactivation by diethyl pyrocarbonate ([5]; free enzyme): 7.1

OCC(F)(F)F [CF3CH2OH, 2,2,2-trifluoroethanol, reference compound]
Ki ([6]; read-out: Ki, CF3CH2OH, pH 7.3, 30 °C, 83 mM potassium phosphate, 40 mM KCl): 2500 µM
Ki [7, 19]: 19000 µM
Ki [8, 19]: 33000 µM
Ki [9]: 55000 µM

CC=O [acetaldehyde]
isotope effect (for VD2/Kp), acetaldehyde reduction ([10]; 1 mM acetaldehyde with 0.15 mM NADH, over the pH range): ~ 2
pK of pH dependence of V2/Et [11]: 9.6 ± 0.1
V2/Et, limiting value ka ([11]; EH form): ka 850 ± 60 s^−1
V1/EtKp, limiting value ka ([11]; EH form, NADH and acetaldehyde): ka 32 ± 3 mM^−1s^−1
pK of pH dependence of V1/EtKp ([11]; NADH and acetaldehyde): 9.5 ± 0.1
Kp, Michaelis constant for acetaldehyde [12, 20]: 22 mM
V2/Et, turnover number for acetaldehyde reduction [12, 20]: 1040 s⁻¹
V2/Etkp, catalytic efficiency for acetaldehyde reduction [12, 20]: 47 mM⁻¹ s⁻¹
V2/EtkpKiq ([6]; NADH and acetaldehyde, pH 7.3, 30 °C): 77000 mM^−2 s^−1
Kp, Michaelis constant for acetaldehyde [6, 20]: 0.74 mM
V2/Et, turnover number for acetaldehyde reduction [6, 20]: 1800 s⁻¹
Ki ([6]; read-out: Kip, intercept inhibition constant, product inhibition studies, pH 7.3, 30 °C): 1500 µM
V1/EtKp, limiting value ka ([13]; EH form, NADH and acetaldehyde): ka 3200 ± 200 mM^−1s^−1
V2/Et, limiting value ka ([13]; EH form): 3600 ± 300 s⁻¹
pK of pH dependence of V1/EtKp ([13]; NADH and acetaldehyde): 7.7 ± 0.1
pK of pH dependence of V2/Et [13]: 7.8 ± 0.2
V2/EtkpKiq ([7]; NADH and acetaldehyde): 6100 mM^−2 s^−1
Kp, Michaelis constant for acetaldehyde [7, 21]: 4.7 mM
V2/Et, turnover number for acetaldehyde reduction [7, 21]: 460 s⁻¹
V2/Etkp, catalytic efficiency for acetaldehyde reduction [7, 21]: 98 mM⁻¹ s⁻¹
V2/EtkpKiq ([8]; NADH and acetaldehyde): 19000 mM^−2 s^−1
Kp, Michaelis constant for acetaldehyde [8, 21]: 12 mM
V2/Et, turnover number for acetaldehyde reduction [8, 21]: 3000 s⁻¹
V2/Etkp, catalytic efficiency for acetaldehyde reduction [8, 21]: 250 mM⁻¹ s⁻¹

NC(=O)C1=CN([C@@H]2O[C@H](COP(=O)([O-])OP(=O)([O-])OC[C@H]3O[C@@H](n4cnc5c(N)ncnc54)[C@H](O)[C@@H]3O)[C@@H](O)[C@H]2O)C=CC1.[Na+].[Na+] [NADH]
pK of pH dependence of Kiq [11]: 8.9 ± 0.2
pK of pH dependence of V2/Etkq [11]: 8.8 ± 0.1
Kiq, limiting value ka ([11]; EH form): ka 7.9 ± 1.4 μM
V2/Etkq, limiting value ka ([11]; EH form): ka 16 ± 2 μM^−1s^−1
rate constant for dissociation, calculated from V2Kiq/EtKq ([11]; essentially pH independent): 120 s⁻¹
Kq, Michaelis constant for NADH [12, 20]: 42 pM
Ki [12, 22]: 3.5 µM
Kq, Michaelis constant for NADH [6, 20]: 94 pM
Ki [6, 22]: 31 µM
Kiq, limiting value ka ([13]; EH form): 15 ± 2 µM
V2/Etkq, limiting value [13]: 32 ± 3 µM⁻¹ s⁻¹
pK of pH dependence of Kiq [13]: 7.4 ± 0.2
pK of pH dependence of V2/Etkq [13]: 7.8 ± 0.2
Kq, Michaelis constant for NADH [7, 21]: 10 pM
Ki [7, 23]: 16 µM
Kq, Michaelis constant for NADH [8, 21]: 110 pM
Ki [8, 23]: 13 µM

CCO [ethanol]
VD1, isotope effect for oxidation of ethanol ([10]; pH 6 (MES)): 2.8
VD1, isotope effect for oxidation of ethanol ([10]; pH 7 (MOPS)): 4.2
VD1, isotope effect for oxidation of ethanol ([10]; pH 8 (TAPS)): 2.9
VD1, isotope effect for oxidation of ethanol ([10]; pH 9 (TAPS)): 2.3
VD1, isotope effect for oxidation of ethanol ([10]; pH 10 (CAPSO)): 1.8
pK of pH dependence of V1/EtKb [11]: 8.5 ± 0.1
pK1 of pH dependence of V1/Et ([11]; deprotonation of H2E, NAD^+ and ethanol): 7.0 ± 0.2
pK2 of pH dependence of V1/Et ([11]; deprotonation of HE, NAD^+ and ethanol): 9.2 ± 0.3
V1/Et, turnover number for ethanol oxidation [12, 20]: 24 s⁻¹
KbKia/Ka, slope inhibition constant ([12]; product inhibition studies, pH 7.3, 30 °C): 36 mM
V1/Et, turnover number for ethanol oxidation [6, 20]: 360 s⁻¹
VD1, isotope effect for oxidation of ethanol ([14]; pH 6): 2.0
VD1, isotope effect for oxidation of ethanol ([14]; pH 7): 1.8
VD1, isotope effect for oxidation of ethanol ([14]; pH 8): 1.8
VD1, isotope effect for oxidation of ethanol ([14]; pH 9): 1.4
VD1, isotope effect for oxidation of ethanol ([14]; pH 10): 1.3
V1/EtKb, limiting value ka ([13]; EH form): 3500 ± 900 M⁻¹ s⁻¹
pK of pH dependence of V1/Et [13]: 7.3 ± 0.1
pK of pH dependence of V1/EtKb [13]: 7.8 ± 0.2
V1/Et, turnover number for ethanol oxidation [7, 21]: 60 s⁻¹
V1/Et, turnover number for ethanol oxidation [8, 21]: 30 s⁻¹
VD1, isotope effect for oxidation of ethanol ([15]; pH 6): 3.5
VD1, isotope effect for oxidation of ethanol ([15]; pH 7): 1.7
VD1, isotope effect for oxidation of ethanol ([15]; pH 8): 1.2
VD1, isotope effect for oxidation of ethanol ([15]; pH 9): 1.1
VD1, isotope effect for oxidation of ethanol ([15]; pH 10): 1.1
VD1, isotope effect for oxidation of ethanol ([16]; pH 6): 3.9
VD1, isotope effect for oxidation of ethanol ([16]; pH 7): 4.2
VD1, isotope effect for oxidation of ethanol ([16]; pH 8): 3.3
VD1, isotope effect for oxidation of ethanol ([16]; pH 9): 2.9
VD1, isotope effect for oxidation of ethanol ([16]; pH 10): 2.3

N=C([O-])c1ccc[n+]([C@@H]2O[C@H](COP(=O)(O)OP(=O)([O-])OC[C@H]3O[C@@H](n4cnc5c(N)ncnc54)[C@H](O)[C@@H]3O)[C@@H](O)[C@H]2O)c1.[Li+] [NAD^+]
pK of pH dependence of Kia [11]: ~pH independent
pK of pH dependence of V1/EtKa [11]: 8.03 ± 0.04
Ki ([11]; read-out: Kia, at pH 7): 160 µM
Ka, Michaelis constant for NAD^+ [12, 20]: 320 µM
Ka, Michaelis constant for NAD^+ [6, 20]: 160 µM
Ki ([6]; read-out: Kia, inhibition (dissociation) constant for NAD^+, pH 7.3, 30 °C, 83 mM potassium phosphate, 40 mM KCl): 950 µM
Kia, limiting value ka ([13]; EH form): 0.54 ± 0.06 mM
V1/EtKa ([13]; at pH 7): 1570 (at pH 7) mM^−1s^−1
pK of pH dependence of Kia [13]: 8.1 ± 0.2
slope of pH dependence of V1/EtKa [13]: −0.11 ± 0.02
Ka, Michaelis constant for NAD^+ [7, 21]: 150 µM
Ki [7, 24]: 260 µM
Ka, Michaelis constant for NAD^+ [8, 21]: 100 µM
Ki [8, 24]: 410 µM

CCCCO [1-butanol]
average isotope effect, butanol oxidation ([10]; 5 mM 1-butanol or 1-butanol-d9, 2 mM NAD^+, pH range from 6.5 to 10.5): 4.2
Catalytic efficiency with butanol, fold lower than with ethanol [12]: about 20 fold
Km ([12]; 1-butanol): ~30 mM
Catalytic efficiency with butanol, fold lower than with ethanol [6]: about 20 fold

Source: article PMC11090211 (Chemico-biological interactions, 2024)
